Assays:
C. felis = assay: In vivo study in dogs to assess flea control efficacy in a simulated home environment; conditions: 25 mg/kg oral; for Mean flea numbers (arithmetic), Treated group / Mean flea numbers (geometric), Treated group: 25 mg/kg
Protocol: Twenty healthy male and female mixed-breed dogs ≧12 weeks old were housed in individual pens. Ten dogs per group were randomly assigned to receive either a fluralaner chewable tablet (Bravecto™) or no treatment. Each pen contained the bottom half of a dog carrier lined with carpet as bedding. Before treatment, each dog was infested twice (28 and 21 days pretreatment) with 100 adult, unfed C. felis to establish a flea population prior to treatment on each dog. Flea media was added to the carpet 4 weeks before the treatment date and weekly thereafter for the remainder of the study to encourage development of an active, developing population of juvenile flea stages in each pen. On the treatment day, dogs in the treated group received fluralaner at a dose close to 25 mg/kg body weight by oral administration. The chewable tablet(s) were administered by placement in the back of the oral cavity over the tongue to initiate swallowing. Dogs in the negative control group remained untreated. Flea counts were performed on all dogs 1 day before treatment, 1 day after treatment and then every 7 days until completion of the study 84 days later. All live fleas recovered were held and re-infested on the dog after the comb count was completed. Each dog was also infested with 50 newly emerged unfed adult fleas on days 22, 50 and 78 to simulate natural infestation post-treatment. The individual dog was the experimental unit and data from each flea count time point were analyzed separately. Flea count data were transformed [Y=loge(x+1)] and analyzed by a mixed linear model including treatment as the fixed effect and block as the random effect. Kenward-Rogers adjustment was used to determine the denominator degree of freedom. A two-tailed test was used within the mixed linear model for the comparison between treatment groups and statistical significance was declared when P≦0.05. SAS version 9.3 was the primary software used for analysis. Efficacy was calculated using arithmetic and geometric means with Abbott's formula: Efficacy (%)=100×(MC−MT)/MC, where MC was the arithmetic or geometric mean number of total adult live fleas on untreated dogs and MT the arithmetic or geometric mean number of total adult live fleas on treated dogs.

[1] = Adverse events in treated dogs following administration; assay type: in vivo; conditions: chewable tablet (Bravecto), close to 25 mg/kg body weight oral
Protocol: Twenty healthy male and female mixed-breed dogs ≧12 weeks old were housed in individual pens. Ten dogs per group were randomly assigned to receive either a fluralaner chewable tablet (Bravecto™) or no treatment. Each pen contained the bottom half of a dog carrier lined with carpet as bedding. Before treatment, each dog was infested twice (28 and 21 days pretreatment) with 100 adult, unfed C. felis to establish a flea population prior to treatment on each dog. Flea media was added to the carpet 4 weeks before the treatment date and weekly thereafter for the remainder of the study to encourage development of an active, developing population of juvenile flea stages in each pen. On the treatment day, dogs in the treated group received fluralaner at a dose close to 25 mg/kg body weight by oral administration. The chewable tablet(s) were administered by placement in the back of the oral cavity over the tongue to initiate swallowing. Dogs in the negative control group remained untreated.

[2] = day 1 post treatment, listed as fluranaler
[3] = day 7 post treatment, listed as fluranaler
[4] = day 14 post treatment, listed as fluranaler
[5] = day 21 post treatment, listed as fluranaler
[6] = day 28 post treatment, listed as fluranaler
[7] = day 35 post treatment, listed as fluranaler
[8] = day 42 post treatment, listed as fluranaler
[9] = day 49 post treatment, listed as fluranaler
[10] = day 56 post treatment, listed as fluranaler
[11] = day 63 post treatment, listed as fluranaler
[12] = day 70 post treatment, listed as fluranaler
[13] = day 77 post treatment, listed as fluranaler
[14] = day 84 post treatment, listed as fluranaler

Cc1cc(C2=NOC(c3cc(Cl)cc(Cl)c3)(C(F)(F)F)C2)ccc1C(=O)NCC(=O)NCC(F)(F)F (centres unmarked) [fluralaner, 4-[5-(3,5-Dichlorophenyl)-5-trifluoromethyl-4,5-dihydroisoxazol-3-yl]-2-methyl-N-[(2,2,2-trifluoro-ethylcarbamoyl)-methyl]-benzamide]
99.8/99.8%: Efficacy (from arithmetic mean flea counts) (C. felis; day 56 post treatment) | Efficacy (from geometric mean flea counts) (C. felis; day 56 post treatment)
99.6%: Efficacy (from geometric mean flea counts) (C. felis; day 70 post treatment)
~100%: Flea-control efficacy (C. felis; all post-treatment time points (12-week post-treatment period))
0/0: Mean flea numbers (arithmetic), Treated group (C. felis; [2]) | Mean flea numbers (geometric), Treated group (C. felis; [2]) | Mean flea numbers (arithmetic), Treated group (C. felis; [3]) | Mean flea numbers (geometric), Treated group (C. felis; [3]) | Mean flea numbers (arithmetic), Treated group (C. felis; [4]) | Mean flea numbers (geometric), Treated group (C. felis; [4]) | Mean flea numbers (arithmetic), Treated group (C. felis; [5]) | Mean flea numbers (geometric), Treated group (C. felis; [5]) | Mean flea numbers (arithmetic), Treated group (C. felis; [6]) | Mean flea numbers (geometric), Treated group (C. felis; [6]) | Mean flea numbers (arithmetic), Treated group (C. felis; [7]) | Mean flea numbers (geometric), Treated group (C. felis; [7]) | Mean flea numbers (arithmetic), Treated group (C. felis; [8]) | Mean flea numbers (geometric), Treated group (C. felis; [8]) | Mean flea numbers (arithmetic), Treated group (C. felis; [11]) | Mean flea numbers (geometric), Treated group (C. felis; [11]) | Mean flea numbers (arithmetic), Treated group (C. felis; [13]) | Mean flea numbers (geometric), Treated group (C. felis; [13]) | Mean flea numbers (arithmetic), Treated group (C. felis; [14]) | Mean flea numbers (geometric), Treated group (C. felis; [14])
100/100%: Efficacy (from arithmetic mean flea counts) (C. felis; day 1 post treatment) | Efficacy (from geometric mean flea counts) (C. felis; day 1 post treatment) | Efficacy (from arithmetic mean flea counts) (C. felis; day 7 post treatment) | Efficacy (from geometric mean flea counts) (C. felis; day 7 post treatment) | Efficacy (from arithmetic mean flea counts) (C. felis; day 14 post treatment) | Efficacy (from geometric mean flea counts) (C. felis; day 14 post treatment) | Efficacy (from arithmetic mean flea counts) (C. felis; day 21 post treatment) | Efficacy (from geometric mean flea counts) (C. felis; day 21 post treatment) | Efficacy (from arithmetic mean flea counts) (C. felis; day 28 post treatment) | Efficacy (from geometric mean flea counts) (C. felis; day 28 post treatment) | Efficacy (from arithmetic mean flea counts) (C. felis; day 35 post treatment) | Efficacy (from geometric mean flea counts) (C. felis; day 35 post treatment) | Efficacy (from arithmetic mean flea counts) (C. felis; day 42 post treatment) | Efficacy (from geometric mean flea counts) (C. felis; day 42 post treatment) | Efficacy (from arithmetic mean flea counts) (C. felis; day 63 post treatment) | Efficacy (from geometric mean flea counts) (C. felis; day 63 post treatment) | Efficacy (from arithmetic mean flea counts) (C. felis; day 77 post treatment) | Efficacy (from geometric mean flea counts) (C. felis; day 77 post treatment) | Efficacy (from arithmetic mean flea counts) (C. felis; day 84 post treatment) | Efficacy (from geometric mean flea counts) (C. felis; day 84 post treatment)
No adverse events were observed: Adverse events [1]
99.8%: Efficacy (from arithmetic mean flea counts) (C. felis; day 49 post treatment)
0: Mean flea numbers (arithmetic), Treated group (C. felis; day 1 post treatment) | Mean flea numbers (geometric), Treated group (C. felis; day 1 post treatment) | Mean flea numbers (arithmetic), Treated group (C. felis; day 7 post treatment) | Mean flea numbers (geometric), Treated group (C. felis; day 7 post treatment) | Mean flea numbers (arithmetic), Treated group (C. felis; day 14 post treatment) | Mean flea numbers (geometric), Treated group (C. felis; day 14 post treatment) | Mean flea numbers (arithmetic), Treated group (C. felis; day 21 post treatment) | Mean flea numbers (geometric), Treated group (C. felis; day 21 post treatment) | Mean flea numbers (arithmetic), Treated group (C. felis; day 28 post treatment) | Mean flea numbers (geometric), Treated group (C. felis; day 28 post treatment) | Mean flea numbers (arithmetic), Treated group (C. felis; day 35 post treatment) | Mean flea numbers (geometric), Treated group (C. felis; day 35 post treatment) | Mean flea numbers (arithmetic), Treated group (C. felis; day 42 post treatment) | Mean flea numbers (geometric), Treated group (C. felis; day 42 post treatment) | Mean flea numbers (arithmetic), Treated group (C. felis; day 63 post treatment) | Mean flea numbers (geometric), Treated group (C. felis; day 63 post treatment) | Mean flea numbers (arithmetic), Treated group (C. felis; day 77 post treatment) | Mean flea numbers (geometric), Treated group (C. felis; day 77 post treatment) | Mean flea numbers (arithmetic), Treated group (C. felis; day 84 post treatment) | Mean flea numbers (geometric), Treated group (C. felis; day 84 post treatment)
0.1: Mean flea numbers (arithmetic), Treated group (C. felis; day 49 post treatment) | Mean flea numbers (geometric), Treated group (C. felis; day 49 post treatment) | Mean flea numbers (arithmetic), Treated group (C. felis; day 56 post treatment) | Mean flea numbers (geometric), Treated group (C. felis; day 56 post treatment) | Mean flea numbers (arithmetic), Treated group (C. felis; day 70 post treatment) | Mean flea numbers (geometric), Treated group (C. felis; day 70 post treatment)
99.7%: Efficacy (from geometric mean flea counts) (C. felis; day 49 post treatment) | Efficacy (from arithmetic mean flea counts) (C. felis; day 70 post treatment)
0.1/0.1: Mean flea numbers (arithmetic), Treated group (C. felis; [9]) | Mean flea numbers (geometric), Treated group (C. felis; [9]) | Mean flea numbers (arithmetic), Treated group (C. felis; [10]) | Mean flea numbers (geometric), Treated group (C. felis; [10]) | Mean flea numbers (arithmetic), Treated group (C. felis; [12]) | Mean flea numbers (geometric), Treated group (C. felis; [12])
